Patent US20200230155A1, “TOPICAL CORTICOSTEROID COMPOSITIONS” (Encore Dermatology, Inc., priority 2014, published 2020)
Where two headings read alike, the source gives them in different places.

How the values were obtained:
[1] = cited from earlier work
skin blanching = conditions: in vivo; cited from earlier work
[2] = tested on: intact skin of healthy volunteers; test: Irritation patch test study under semi-occlusive conditions; conditions: continuous exposure under semi occlusion, 21 patch applications over 21 days
Source text: This was a randomized, double-blind, single-center, vehicle-controlled, within-subject comparison patch test study of followings for irritation potential when repeatedly applied to the skin under semi-occlusive conditions in healthy volunteers: • i. […] Vehicle spray (without active agent of Composition 6), • iii.
All subjects received applications of each study product to intact skin at randomly assigned, adjacent sites on the back. Evaluators and subjects were blinded and unaware of the identity of the study product at the patch test sites. The study products were applied under semi-occlusive patch conditions using a 2 cm×2 cm patch. The products were applied to either side of the infrascapular area of the back. Evaluation of dermal reactions at the application sites were assessed clinically using a visual scale that rates the degree of erythema, edema, and other signs of cutaneous irritation.
A total of 21 patch applications were made over a period of 21 days. Irritancy score of each composition was recorded.

SMILES	Solubility ([1]; in acetone)	Solubility ([1]; in chloroform)	Solubility ([1]; in ethanol)	Solubility ([1]; in water)	VCA potency class (skin blanching)	Irritation [2]
CCC(=O)OCC(=O)[C@@]1(OC(=O)CC)[C@@H](C)C[C@H]2[C@@H]3CCC4=CC(=O)C=C[C@]4(C)[C@@]3(F)[C@@H](O)C[C@@]21C [Betamethasone dipropionate, 9-fluoro-11(β),17,21-trihydroxy-16(β)-methylpregna-1,4-diene-3,20-dione 17,21-dipropionate]	freely soluble	freely soluble	sparingly soluble	practically insoluble	super potent (Class 1) and/or high potent (Class 2)	–
CCCCCCCCCCCCOS(=O)(=O)[O-].[Na+] [0.2% SLS, Sodium lauryl sulfate]	–	–	–	–	–	Significantly more irritation
